Data published in ChEMBL document CHEMBL1201862, “PubChem BioAssay data set” (2004).
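Each compound was tested at five concentrations against cells in 96-well plates for 48 hours. GI50: concentration for 50% inhibition of growth.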 The source made the active and inactive calls. Rule as the data show it: active = GI50 up to about 1.1 µM and inactive = higher.

Experiments:
Assay in all cases: DTP human tumour cell line panel, 48 h
SW-620 = test system: SW-620
NCI-H460 = test system: NCI-H460
SNB-19 = test system: SNB-19
NCI-H226 = test system: NCI-H226
HOP-92 = test system: HOP-92
HCT-116 = test system: HCT-116
UACC-62 = test system: UACC-62
NCI-H522 = test system: NCI-H522
SF-268 = test system: SF-268
SR = test system: SR
UO-31 = test system: UO-31
OVCAR-3 = test system: OVCAR-3
CAKI-1 = test system: CAKI-1
786-0 = test system: 786-0
SK-MEL-5 = test system: SK-MEL-5
OVCAR-4 = test system: OVCAR-4
KM12 = test system: KM12
A498 = test system: A498
A549 = test system: A549
MDA-MB-231 = test system: MDA-MB-231

Measured: GI50

C=C=C(Sc1ccccc1)C(C)(C)OC(C)=O
inactive: SW-620 17.6 µM | NCI-H460 21.1 µM | SNB-19 18.8 µM | NCI-H226 21.4 µM | HOP-92 15.8 µM | HCT-116 13.9 µM | UACC-62 14.3 µM | NCI-H522 15.6 µM | SF-268 13.9 µM | SR 27.9 µM | UO-31 14.2 µM | OVCAR-3 16.3 µM | CAKI-1 34.9 µM | 786-0 16.5 µM | SK-MEL-5 15.8 µM | OVCAR-4 31.2 µM | KM12 16 µM | A498 19 µM | A549 23.9 µM

O=C(O)C(SC(=S)c1ccc(C(=S)SC(C(=O)O)c2ccccc2)cc1)c1ccccc1 (stereo not given)
inactive: SW-620 > 100 µM | NCI-H460 > 100 µM | SNB-19 46.6 µM | NCI-H226 55.5 µM | HOP-92 > 100 µM | HCT-116 > 100 µM | UACC-62 47.3 µM | SF-268 97.3 µM | SR > 100 µM | UO-31 92.7 µM | OVCAR-3 56.5 µM | 786-0 40.9 µM | SK-MEL-5 > 100 µM | KM12 > 100 µM | A498 69.8 µM | A549 > 100 µM

CC(C)OP(=O)(OC(C)C)/C(F)=N/Nc1ccc([N+](=O)[O-])cc1
inactive: SW-620 > 100 µM | NCI-H460 > 100 µM | SNB-19 > 100 µM | HOP-92 > 100 µM | HCT-116 > 100 µM | UACC-62 > 100 µM | NCI-H522 > 100 µM | SF-268 > 100 µM | SR > 100 µM | UO-31 > 100 µM | OVCAR-3 > 100 µM | CAKI-1 > 100 µM | SK-MEL-5 > 100 µM | OVCAR-4 > 100 µM | KM12 91.2 µM | A498 > 100 µM | A549 > 100 µM

C1=CCN(c2ccccc2)CC1
inactive: SW-620 16.3 µM | NCI-H460 > 100 µM | SNB-19 > 100 µM | HOP-92 21.2 µM | HCT-116 29.6 µM | UACC-62 30.3 µM | NCI-H522 16.3 µM | SF-268 36.6 µM | SR 2.93 µM | UO-31 > 100 µM | OVCAR-3 25.4 µM | SK-MEL-5 62.7 µM | KM12 64.9 µM | A498 > 100 µM | A549 > 100 µM

O=C(O)/C(O)=C1/C=C(c2ccccc2)c2ccccc21
inactive: SW-620 20 µM | NCI-H460 26.4 µM | SNB-19 29.2 µM | NCI-H226 21.6 µM | HOP-92 18.9 µM | HCT-116 19.6 µM | UACC-62 16.1 µM | NCI-H522 16.9 µM | SF-268 22 µM | SR 18.7 µM | UO-31 19.3 µM | CAKI-1 31.4 µM | 786-0 28.4 µM | SK-MEL-5 17.7 µM | OVCAR-4 26.1 µM | KM12 17.8 µM | A498 31.7 µM | A549 26.2 µM

COc1cc(C(=O)CC2OC(=O)C(Cl)=C2Cl)ccc1Cl (stereo not given)
inactive: SW-620 > 100 µM | NCI-H460 > 100 µM | SNB-19 > 100 µM | NCI-H226 > 100 µM | HOP-92 > 100 µM | HCT-116 > 100 µM | UACC-62 > 100 µM | NCI-H522 > 100 µM | SF-268 > 100 µM | SR > 100 µM | UO-31 > 100 µM | OVCAR-3 > 100 µM | CAKI-1 > 100 µM | SK-MEL-5 > 100 µM | OVCAR-4 > 100 µM | KM12 > 100 µM | A498 > 100 µM | A549 > 100 µM

COC1=CC(=O)OC(/C=C(C)/C=C/C2=C(C)CCCC2(C)C)C1 (stereo not given)
inactive: SW-620 > 100 µM | NCI-H460 > 100 µM | SNB-19 > 100 µM | NCI-H226 > 100 µM | HOP-92 > 100 µM | HCT-116 > 100 µM | UACC-62 > 100 µM | NCI-H522 > 100 µM | SF-268 > 100 µM | SR > 100 µM | UO-31 > 100 µM | OVCAR-3 > 100 µM | CAKI-1 > 100 µM | 786-0 > 100 µM | SK-MEL-5 > 100 µM | OVCAR-4 > 100 µM | KM12 > 100 µM | A498 > 100 µM | A549 > 100 µM

COc1ccc(-c2cc(N3CCN(c4ccccc4)CC3)c(C#N)c(=O)o2)cc1
inactive: SW-620 42 µM | NCI-H460 26.5 µM | SNB-19 8.49 µM | NCI-H226 7.74 µM | HOP-92 55 µM | HCT-116 62.8 µM | SF-268 8.55 µM | SR > 100 µM | UO-31 13.2 µM | CAKI-1 16.7 µM | SK-MEL-5 36.4 µM | OVCAR-4 4.59 µM | KM12 > 100 µM | A498 26.9 µM | A549 21.2 µM

N#CC(C#N)=C1CCC2C(=C(C#N)C#N)CCC12 (stereo not given)
inactive: SW-620 > 100 µM | NCI-H460 > 100 µM | SNB-19 > 100 µM | NCI-H226 > 100 µM | HOP-92 > 100 µM | HCT-116 > 100 µM | UACC-62 > 100 µM | NCI-H522 > 100 µM | SF-268 > 100 µM | SR > 100 µM | UO-31 > 100 µM | OVCAR-3 > 100 µM | CAKI-1 > 100 µM | 786-0 > 100 µM | SK-MEL-5 > 100 µM | OVCAR-4 > 100 µM | KM12 > 100 µM | A498 > 100 µM | A549 > 100 µM

Nc1nc(NC2C=C(CO)C(O)C2O)c([N+](=O)[O-])c(=O)[nH]1 (stereo not given)
inactive: SW-620 > 100 µM | NCI-H460 > 100 µM | SNB-19 > 100 µM | NCI-H226 > 100 µM | HOP-92 > 100 µM | HCT-116 > 100 µM | UACC-62 > 100 µM | NCI-H522 > 100 µM | SF-268 > 100 µM | SR > 100 µM | UO-31 > 100 µM | OVCAR-3 > 100 µM | CAKI-1 > 100 µM | 786-0 > 100 µM | SK-MEL-5 > 100 µM | OVCAR-4 > 100 µM | KM12 > 100 µM | A498 > 100 µM | A549 > 100 µM

CCc1ccc2nc(-c3ccc(O)cc3)sc2c1
inactive: SW-620 20.6 µM | NCI-H460 21.1 µM | SNB-19 14.7 µM | MDA-MB-231 13.2 µM | NCI-H226 13.2 µM | HCT-116 16.7 µM | UACC-62 12.4 µM | NCI-H522 3.86 µM | SF-268 17.4 µM | UO-31 11.8 µM | OVCAR-3 13.6 µM | CAKI-1 12.4 µM | SK-MEL-5 17.8 µM | KM12 14.3 µM | A498 18 µM | A549 17.9 µM

CSc1nc2c(nc(N)n2C2OCC(O)C(O)C2O)c(=O)[nH]1 (stereo not given)
inactive: SW-620 > 100 µM | NCI-H460 > 100 µM | SNB-19 > 100 µM | NCI-H226 > 100 µM | HOP-92 > 100 µM | HCT-116 > 100 µM | UACC-62 > 100 µM | NCI-H522 > 100 µM | SF-268 > 100 µM | SR > 100 µM | UO-31 > 100 µM | OVCAR-3 > 100 µM | CAKI-1 > 100 µM | 786-0 > 100 µM | SK-MEL-5 > 100 µM | OVCAR-4 > 100 µM | KM12 > 100 µM | A498 > 100 µM | A549 > 100 µM
